# Data taken from US20200254211A1, “STRESS RELIEVING DEVICE FOR VEHICLES” (DENSO CORPORATION, priority 2015, published 2020).
# Columns and labels:
# [1] = test system: α-II waves and θ waves in the brain; assay: human brain waves recorded in an environment where cedrol is volatilized (FIG. 3); format: in vivo
# Experimental: Further, from the start of volatilization of cedrol and until cedrol concentration reaches 300 μg/m^3, the activity voltage of α-II waves is greater than that of θ waves, and it is understood that this is suitable for relaxing a person. Further, once cedrol concentration exceeds 300 μg/m^3, the activity voltage of […] is greater than that of α-II waves, and it is understood that this is suitable for promoting sleepiness in a person.
# parasympathetic nerves = assay: parasympathetic nerve state with respect to cedrol concentration (FIG. 4); format: in vivo, human
# Experimental: Then, once cedrol concentration exceeds 300 μg/m^3, due to excessive relaxation, sleepiness is promoted.
# [2] = test system: parasympathetic nerve state (relaxation state) of test subjects; assay: stress substitution experiment (FIG. 6); format: in vivo, human; details: average of six test subjects, cedrol in diethylene glycol monobutyl ether
# From the text: In this experiment, instead of actual driving, a stress substitution experiment is applied to confirm effects. The stress substitution experiment may be, for example, repetitively performing simple calculations, handling heavy objects with difficult posture, etc.
# In the above stress substitution experiment, with respect to an initial state, the parasympathetic nerve state (relaxation state) of the test subjects decreases when stressed. […] In other words, it is possible for a mixture solvent of cedrol is change an irritated state to a relaxed state.
# humans = details: general statement; cited from earlier work
structure (smiles),measurement,setting,value
C[C@@H]1CC[C@H]2C(C)(C)[C@H]3C[C@@]12CC[C@@]3(C)O [cedrol],cedrol concentration at which activity voltage of α-II waves is greater than that of θ waves (suitable for relaxing),[1]; from the start of volatilization,≤ 300 μg/m^3
same,activity voltages of α-II waves (relaxation) and θ waves (falling asleep),"[1]; human brain waves, volatilized cedrol, with rising concentration",both increase as the concentration of cedrol increases
same,cedrol concentration at which activity voltage of θ waves is greater than that of α-II waves (promoting sleepiness),[1]; volatilized cedrol in air,exceeds 300 μg/m^3
same,lower limit of cedrol for exhibiting a relaxation effect,parasympathetic nerves; volatilization amount in vehicle cabin,0.5 μg/m^3
same,cedrol concentration at which sleepiness is promoted due to excessive relaxation,parasympathetic nerves; volatilized cedrol in air,exceeds 300 μg/m^3
same,parasympathetic nerve state with increasing cedrol concentration,parasympathetic nerves; volatilized cedrol in air,parasympathetic nerves become significant
same,parasympathetic nerve state (relaxation state) after release of mixture solvent vapor to stressed test subjects,[2],increases to above the initial state
same,physiological effects in humans,humans,"lowering heat rate, respiratory rate, blood pressure, etc. in humans, and also increasing α-II waves in the brain"
